Drawing on ChEMBL document CHEMBL5390237, “Discovery of Selective Histone Deacetylase 1 and 2 Inhibitors: Screening of a Focused Library Constructed by Click Chemistry, Kinetic Binding Analysis, and Biological Evaluation” (J Med Chem, 2023), this text covers inhibition for 62 molecules.

By inhibition is commonly meant the change of the read-out against control, counted positive when it falls.

The target of this experiment is Histone deacetylase 2 (Homo sapiens, UniProt Q92769). The experiment in a line: Inhibition of full-length recombinant human C-terminal GST tagged HDAC2 expressed in Sf9 insect cells using aminoluciferin peptide substrate at 100 nM preincubated for 3 hrs followed by substrate addition and measured after 30 mins by HDAC-Glo I/II chemiluminescence assay. The following applies: time 3.5 hrs.
Chain of Histone deacetylase 2 (Q92769 whole entry): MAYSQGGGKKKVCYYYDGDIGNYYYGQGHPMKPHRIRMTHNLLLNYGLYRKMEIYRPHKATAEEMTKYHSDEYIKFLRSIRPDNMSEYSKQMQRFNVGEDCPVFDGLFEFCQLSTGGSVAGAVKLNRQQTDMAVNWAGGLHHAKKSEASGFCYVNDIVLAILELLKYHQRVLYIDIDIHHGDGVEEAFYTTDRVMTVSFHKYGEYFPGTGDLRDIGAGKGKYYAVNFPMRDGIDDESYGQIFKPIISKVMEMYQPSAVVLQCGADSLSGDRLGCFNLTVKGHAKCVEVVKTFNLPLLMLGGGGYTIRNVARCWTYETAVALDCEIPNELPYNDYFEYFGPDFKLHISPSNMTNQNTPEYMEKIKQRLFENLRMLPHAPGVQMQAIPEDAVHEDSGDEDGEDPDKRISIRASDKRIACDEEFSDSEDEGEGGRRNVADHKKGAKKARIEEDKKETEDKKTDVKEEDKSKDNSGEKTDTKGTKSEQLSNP
In the case of `Nc1ccc(-c2cccs2)cc1NC(=O)c1cn(CCN2CCc3ccccc3C2)nn1`, the inhibition came to 18%.

As to `Nc1ccc(-c2ccsc2)cc1NC(=O)c1cn(Cc2ccc3ccccc3c2)nn1`, the inhibition was found to be 3%.

On to `Nc1ccc(-c2ccsc2)cc1NC(=O)CCc1cn(CCc2c[nH]c3ccccc23)nn1`, for which the inhibition was 22%.

For `Nc1ccc(-c2ccccc2)cc1NC(=O)CCc1cn(/C=C/c2ccccc2)nn1`, the inhibition came to 15%.

For the molecule `Nc1ccc(-n2cc(CCC(=O)Nc3cc(-c4ccc(F)cc4)ccc3N)nn2)cc1`, the inhibition was determined as 21%.

On to `Nc1ccc(-c2ccccc2)cc1NC(=O)c1cn(CCCCCc2ccccc2)nn1`, for which the inhibition was 0%.

For `Nc1ccc(-c2ccc(F)cc2)cc1NC(=O)c1cn(CCCCCc2ccccc2)nn1`, the inhibition was 1%.

Consider `Cc1cccc(CCn2cc(C(=O)Nc3cc(-c4ccc(F)cc4)ccc3N)nn2)c1`, for which the inhibition worked out at 10%.

In the case of `Nc1ccc(-c2ccccc2)cc1NC(=O)CCc1cn(Cc2cccc3ccccc23)nn1`, the inhibition is 9%.

`Nc1ccc(-c2ccsc2)cc1NC(=O)CCc1cn(CC2CCCCC2)nn1`: the inhibition stood at 0%.

For the molecule `Nc1ccc(-c2cccs2)cc1NC(=O)c1cn(CCc2cccc([N+](=O)[O-])c2)nn1`, the inhibition was 13%.

In the case of `Nc1ccc(-c2cccs2)cc1NC(=O)c1ccc(-c2cn(CC34CC5CC(CC(C5)C3)C4)nn2)s1`, the inhibition amounted to 0%.

`Nc1ccc(-c2ccccc2)cc1NC(=O)CCc1cn(Cc2nc3ccccc3[nH]2)nn1`: the inhibition amounted to 27%.

Consider `Nc1ccc(-c2ccccc2)cc1NC(=O)CCc1cn(CCc2cccc3ccccc23)nn1`, for which the inhibition was 0%.

As to `Cc1ccccc1CCn1cc(C(=O)Nc2cc(-c3ccsc3)ccc2N)nn1`, the inhibition was 0%.

Take `Cc1cccc(C)c1NC(=O)Cn1cc(-c2ccc(C(=O)Nc3cc(-c4cccs4)ccc3N)cc2)nn1`: the inhibition worked out at 52%.

On to `Nc1ccc(-c2cccnc2)cc1NC(=O)CCc1cn(CCc2ccc(F)cc2)nn1`, for which the inhibition came to 3%.

In the case of `Cc1cccc(C)c1NC(=O)Cn1cc(C(=O)Nc2cc(-c3ccc(F)cc3)ccc2N)nn1`, the inhibition was 33%.

Regarding `Cc1csc(CCn2cc(C(=O)Nc3cc(-c4ccsc4)ccc3N)nn2)n1`, the inhibition worked out at 12%.

In the case of `Nc1ccc(-c2cccs2)cc1NC(=O)c1cccc(-c2cn(Cc3ccc4ccccc4c3)nn2)c1`, the inhibition worked out at 6%.

`Nc1ccc(-c2cccs2)cc1NC(=O)c1cccc(-c2cn(Cc3ccc(C(=O)O)cc3)nn2)c1`: the inhibition was found to be 55%.

For the molecule `CCc1ccc(Cn2cc(-c3ccc(C(=O)Nc4cc(-c5cccs5)ccc4N)s3)nn2)cc1`, the inhibition is 2%.

Regarding `Nc1ccc(-c2ccccc2)cc1NC(=O)CCc1cn(CCN2CCOCC2)nn1`, the inhibition was 0%.

Turning to `Nc1ccc(-c2ccsc2)cc1NC(=O)c1cn(CS(=O)(=O)c2ccccc2)nn1`, the inhibition was 14%.

Consider `Cc1ccc(CCn2cc(-c3cccc(C(=O)Nc4cc(-c5cccs5)ccc4N)c3)nn2)cc1`, for which the inhibition came out at 4%.

Take `Nc1ccc(-c2ccccc2)cc1NC(=O)CCc1cn(CC(=O)Nc2ccc(F)cc2)nn1`: the inhibition came out at 11%.

Consider `Nc1ccc(-c2ccccc2)cc1NC(=O)c1cn(-c2ccc([N+](=O)[O-])cc2)nn1`, for which the inhibition was 0%.

In the case of `Nc1ccc(-c2cccnc2)cc1NC(=O)CCc1cn(CCc2c[nH]c3ccccc23)nn1`, the inhibition came to 19%.

Turning to `Nc1ccc(-c2ccsc2)cc1NC(=O)c1cn(CC(=O)c2ccccc2)nn1`, the inhibition amounted to 0%.

Regarding `Nc1ccc(-c2ccsc2)cc1NC(=O)CCc1cn(CCC2CCCCC2)nn1`, the inhibition is 0%.

`Nc1ccc(-c2ccccc2)cc1NC(=O)CCc1cn(CCCCCC(=O)O)nn1`: the inhibition worked out at 0%.

As for `Cc1csc(CCn2cc(CCC(=O)Nc3cc(-c4ccsc4)ccc3N)nn2)n1`, the inhibition was 39%.

Consider `COc1ccccc1CCn1cc(CCC(=O)Nc2cc(-c3cccnc3)ccc2N)nn1`, for which the inhibition is 10%.

Regarding `Nc1ccc(-c2ccccc2)cc1NC(=O)CCc1cn(CCc2ccccc2[N+](=O)[O-])nn1`, the inhibition worked out at 13%.

With `Nc1ccc(-n2cc(C(=O)Nc3cc(-c4ccsc4)ccc3N)nn2)cc1`, the inhibition is 31%.

For `Nc1ccc(-c2cccs2)cc1NC(=O)c1ccc(-c2cn(CCCCCC(=O)O)nn2)cc1`, the inhibition is 9%.

With `Nc1ccc(-c2ccsc2)cc1NC(=O)c1cn(CCc2c[nH]c3ccccc23)nn1`, the inhibition worked out at 6%.

In the case of `Nc1ccc(-c2ccsc2)cc1NC(=O)CCc1cn(CCCCCCC(=O)O)nn1`, the inhibition came to 0%.

Take `Nc1ccc(-c2ccc(F)cc2)cc1NC(=O)CCc1cn(CCc2ccc(Cl)cc2)nn1`: the inhibition came to 3%.

Turning to `Nc1ccc(-c2cccnc2)cc1NC(=O)CCc1cn(Cc2cccc(C(=O)O)c2)nn1`, the inhibition is 0%.

`Nc1ccc(-c2ccccc2)cc1NC(=O)CCc1cn(Cc2cc3ccccc3s2)nn1`: the inhibition stood at 0%.

`Nc1ccc(-c2cccs2)cc1NC(=O)c1cccc(-c2cn(CCc3ccc(F)cc3)nn2)c1`: the inhibition came to 0%.

For the molecule `Nc1ccc(-c2ccsc2)cc1NC(=O)c1cn(-c2ccc([N+](=O)[O-])cc2)nn1`, the inhibition worked out at 0%.

As to `Nc1ccc(-c2ccsc2)cc1NC(=O)c1cn(CCCCCc2ccccc2)nn1`, the inhibition was found to be 0%.

Regarding `Nc1ccc(-c2cccnc2)cc1NC(=O)CCc1cn(Cc2nc3ccccc3[nH]2)nn1`, the inhibition was found to be 11%.

Turning to `Nc1ccc(-c2ccccc2)cc1NC(=O)CCc1cn(CCN2CCc3ccccc3C2)nn1`, the inhibition was 11%.

Take `Nc1ccc(-c2cccs2)cc1NC(=O)c1ccc(-c2cn(CCc3cccc(F)c3)nn2)cc1`: the inhibition came out at 22%.

With `Nc1ccc(-c2cccs2)cc1NC(=O)c1cn(Cc2ccc3ccccc3n2)nn1`, the inhibition stood at 12%.

Take `Nc1ccc(-c2cccs2)cc1NC(=O)c1cn(CC2CCCCC2)nn1`: the inhibition amounted to 1%.

Turning to `Nc1ccc(-c2ccccc2)cc1NC(=O)CCc1cn(CCc2ccccn2)nn1`, the inhibition came to 0%.

Turning to `Cc1ccc(CCn2cc(CCC(=O)Nc3cc(-c4ccccc4)ccc3N)nn2)cc1`, the inhibition stood at 16%.

As for `Nc1ccc(-c2ccc(F)cc2)cc1NC(=O)c1cn(-c2ccc([N+](=O)[O-])cc2)nn1`, the inhibition came out at 8%.

For `Nc1ccc(-c2cccs2)cc1NC(=O)CCc1cn(CCc2ccc(C(F)(F)F)cc2)nn1`, the inhibition worked out at 5%.

For the molecule `Nc1ccc(-c2ccsc2)cc1NC(=O)c1cn(CC23CC4CC(CC(C4)C2)C3)nn1`, the inhibition is 0%.

For `Nc1ccc(-c2ccc(F)cc2)cc1NC(=O)CCc1cn(CC(=O)Nc2ccc(F)cc2)nn1`, the inhibition was found to be 16%.

Consider `Nc1ccc(-c2ccc(F)cc2)cc1NC(=O)c1cn(CCCCCCCC(=O)O)nn1`, for which the inhibition is 29%.

In the case of `Nc1ccc(-n2cc(CCC(=O)Nc3cc(-c4ccccc4)ccc3N)nn2)cc1`, the inhibition stood at 18%.

For `Nc1ccc(-c2ccc(F)cc2)cc1NC(=O)CCc1cn(CCc2ccc(F)cc2)nn1`, the inhibition turned out to be 17%.

Take `Nc1ccc(-c2cccs2)cc1NC(=O)c1cn(CCCCCc2ccccc2)nn1`: the inhibition worked out at 1%.

In the case of `Cc1ccc(CCn2cc(-c3ccc(C(=O)Nc4cc(-c5cccs5)ccc4N)cc3)nn2)cc1`, the inhibition was 19%.

As for `Nc1ccc(-c2cccs2)cc1NC(=O)CCc1cn(Cc2cccc(C(=O)O)c2)nn1`, the inhibition worked out at 3%.

Consider `Nc1ccc(-c2ccc(F)cc2)cc1NC(=O)c1cn(CCCc2ccccc2)nn1`, for which the inhibition was 21%.
